Experimental data reported in patent US10988477B2 (Merck Patent GmbH, priority 2018, dated 2021).
pIC50, pKi: −log10 of the molar value. Where two headings read alike, the source gives them in different places.

Tests used:
GCN2 kinase = GCN2 kinase (Homo sapiens, UniProt Q9P2K8); test: GCN2 enzyme inhibition assay (Transcreener ADP2 fluorescence polarization); type: biochemical; conditions: 280 μM ATP
Procedure, shortened: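 Inhibition of 4 nM GCN2 was measured with compound up to 8 μM final, ATP 280 μM and (RS)7 peptide 200 μM over a 1 h, 25 °C reaction. ADP FP readout; IC50 and Ki(app) calculated from percent inhibition.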

[1] = biological target: intracellular GCN2 (phosphorylation of the GCN2 substrate eIF2α) (Homo sapiens, UniProt Q9P2K8); test: GCN2 cellular inhibition assay (AlphaScreen SureFire P-eIF2α Ser51, borrelidin-treated U2OS cells); type: cell-based
Procedure, shortened: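 Phospho-eIF2α (Ser51) in lysates was quantified by AlphaScreen SureFire after a 1 h, 37 °C treatment of U2OS cells with 10 μM borrelidin and compound at 4-fold dilutions starting from 40 μM final. Inhibition expressed in percent against wells stimulated by borrelidin alone.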

[2] = compounds of Formula II, 4 nM GCN2 kinase
[3] = compounds of Formula II, biomarker assay, phosphorylated eIF2α Ser51 in borrelidin-treated U2OS cells
[4] = Enzyme activity for compounds of Formula IV, Ki(app), 25° C.
[5] = compounds of Formula IV, biomarker assay, phosphorylated eIF2α Ser51 in borrelidin-treated U2OS cells

GCN2 kinase, sequence (Q9P2K8 whole entry): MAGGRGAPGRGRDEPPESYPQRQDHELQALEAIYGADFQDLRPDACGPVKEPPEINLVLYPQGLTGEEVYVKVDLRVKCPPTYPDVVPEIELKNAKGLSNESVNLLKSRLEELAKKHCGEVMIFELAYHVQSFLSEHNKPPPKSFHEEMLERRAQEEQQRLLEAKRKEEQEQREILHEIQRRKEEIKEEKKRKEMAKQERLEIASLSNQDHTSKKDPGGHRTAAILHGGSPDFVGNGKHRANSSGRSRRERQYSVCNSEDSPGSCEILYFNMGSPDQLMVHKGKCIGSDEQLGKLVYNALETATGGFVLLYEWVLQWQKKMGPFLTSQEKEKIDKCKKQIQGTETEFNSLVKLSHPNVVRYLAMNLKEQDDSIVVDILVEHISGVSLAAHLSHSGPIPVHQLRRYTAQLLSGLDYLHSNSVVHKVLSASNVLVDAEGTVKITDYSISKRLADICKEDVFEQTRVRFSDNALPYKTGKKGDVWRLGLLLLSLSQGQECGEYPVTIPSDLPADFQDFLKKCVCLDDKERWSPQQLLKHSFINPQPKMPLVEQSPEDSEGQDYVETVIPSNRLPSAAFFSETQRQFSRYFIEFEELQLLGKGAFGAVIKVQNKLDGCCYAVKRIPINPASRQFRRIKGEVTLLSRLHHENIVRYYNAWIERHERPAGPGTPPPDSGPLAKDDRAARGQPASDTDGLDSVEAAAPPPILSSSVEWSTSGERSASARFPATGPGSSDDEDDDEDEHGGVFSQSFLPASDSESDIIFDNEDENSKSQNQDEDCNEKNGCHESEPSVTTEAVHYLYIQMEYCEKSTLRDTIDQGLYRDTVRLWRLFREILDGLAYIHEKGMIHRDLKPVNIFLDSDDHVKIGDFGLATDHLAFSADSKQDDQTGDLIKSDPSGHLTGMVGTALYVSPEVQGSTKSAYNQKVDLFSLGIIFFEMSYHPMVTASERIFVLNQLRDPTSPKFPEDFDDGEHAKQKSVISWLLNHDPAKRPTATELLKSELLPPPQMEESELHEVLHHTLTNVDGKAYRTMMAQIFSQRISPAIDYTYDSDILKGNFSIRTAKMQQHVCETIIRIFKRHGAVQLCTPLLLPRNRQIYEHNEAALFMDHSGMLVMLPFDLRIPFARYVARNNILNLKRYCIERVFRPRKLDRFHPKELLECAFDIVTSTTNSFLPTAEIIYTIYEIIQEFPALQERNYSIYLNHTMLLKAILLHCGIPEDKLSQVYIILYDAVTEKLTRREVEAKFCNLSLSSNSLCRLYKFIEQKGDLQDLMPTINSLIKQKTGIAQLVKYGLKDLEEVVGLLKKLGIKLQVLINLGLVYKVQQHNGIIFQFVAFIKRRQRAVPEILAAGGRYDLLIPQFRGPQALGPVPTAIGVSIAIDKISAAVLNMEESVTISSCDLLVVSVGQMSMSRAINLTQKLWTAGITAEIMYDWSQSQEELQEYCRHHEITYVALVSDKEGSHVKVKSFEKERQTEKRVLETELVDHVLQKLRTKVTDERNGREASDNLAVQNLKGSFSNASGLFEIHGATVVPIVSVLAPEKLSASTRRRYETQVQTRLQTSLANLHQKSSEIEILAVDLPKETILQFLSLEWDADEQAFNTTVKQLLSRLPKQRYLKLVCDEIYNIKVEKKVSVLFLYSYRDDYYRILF
intracellular GCN2 (phosphorylation of the GCN2 substrate eIF2α), sequence (Q9P2K8 whole entry): as above

Compound	pKi (GCN2 kinase; [2])	pIC50 [1, 3]	pKi (GCN2 kinase; [4])	pIC50 [1, 5]	further results
OC[C@H]1C[C@@H](C(F)(F)F)CN(c2cc(-c3cnc4ccc(C(F)F)nn34)ncn2)C1 [II-315, ((3S,5R)-1-(6-(6-(Difluoromethyl)imidazo[1,2-b]pyridazin-3-yl)pyrimidin-4-yl)-5-(trifluoromethyl)piperidin-3-yl)methanol]	6.00 to 8.00	< 5.30	–	–	–
CNc1cc(-c2cnc3ccc(C(F)F)nn23)cc(N2CCO[C@H](CNS(C)(=O)=O)C2)n1 [II-69, (S)—N-((4-(4-(6-(Difluoromethyl)imidazo[1,2-b]pyridazin-3-yl)-6-(methylamino)pyridin-2-yl)morpholin-2-yl)methyl)methanesulfonamide]	> 8.00	> 6.30	–	–	–
CC1CN(c2ccnc(-c3cnc4sc(C(F)(F)F)cn34)n2)C(C)C(c2cn[nH]c2)N1 (single isomer, unassigned) [Compound V-11, 5-[4-[2,5-Dimethyl-3-(1H-pyrazol-4-yl)piperazin-1-yl]pyrimidin-2-yl]-2-(trifluoromethyl)imidazo[2,1-b]thiazole]	–	–	–	–	pKi (GCN2 kinase; compounds of Formula V, 4 nM GCN2 kinase): > 8.00; pIC50 ([1]; compounds of Formula V, U2OS cells, 10 μM borrelidin, 1 h, read-out: GCN2 Biomarker (IC50)): > 6.30
CS(=O)(=O)NC[C@@H]1CN(c2ccnc(-c3cnc4ccc(C(F)F)nn34)c2)CCO1 [II-110, (S)—N-((4-(2-(6-(Difluoromethyl)imidazo[1,2-b]pyridazin-3-yl)pyridin-4-yl)morpholin-2-yl)methyl)methanesulfonamide]	> 8.00	> 6.30	–	–	–
CC1C(CNS(C)(=O)=O)OC(C)(C)CN1c1cc(-c2cnc3ccc(C(F)F)nn23)ncn1 (single isomer, unassigned) [II-489, N-((4-(6-(6-(Difluoromethyl)imidazo[1,2-b]pyridazin-3-yl)pyrimidin-4-yl)-3,6,6-trimethylmorpholin-2-yl)methyl)methanesulfonamide]	< 6.00	< 5.30	–	–	–
CC1(NS(C)(=O)=O)CCCN(c2cc(-c3cnc4ccc(C(F)F)nn34)ncn2)C1 (stereo not shown) [II-445, N-(1-(6-(6-(Difluoromethyl)imidazo[1,2-b]pyridazin-3-yl)pyrimidin-4-yl)-3-methylpiperidin-3-yl)methanesulfonamide]	6.00 to 8.00	< 5.30	–	–	–
CC(=O)N1CCC(c2cc(-c3cnc4ccc(C(F)F)nn34)ncn2)C1 (stereo not shown) [II-253, 1-(3-(6-(6-(Difluoromethyl)imidazo[1,2-b]pyridazin-3-yl)pyrimidin-4-yl)pyrrolidin-1-yl)ethan-1-one]	6.00 to 8.00	< 5.30	–	–	–
CS(=O)(=O)NC[C@H]1CCCN(c2cc(-c3cnc4ccc(C(F)F)nn34)ccn2)C1 [II-154, (S)—N-((1-(4-(6-(Difluoromethyl)imidazo[1,2-b]pyridazin-3-yl)pyridin-2-yl)piperidin-3-yl)methyl)methanesulfonamide]	> 8.00	> 6.30	–	–	–
OCC1CCCN(c2cc(-c3cnc4ccc(C(F)F)nn34)ccn2)C1 (stereo not shown) [II-162, (1-(4-(6-(Difluoromethyl)imidazo[1,2-b]pyridazin-3-yl)pyridin-2-yl)piperidin-3-yl)methanol]	6.00 to 8.00	5.30 to 6.30	–	–	–
CC1C(CNS(C)(=O)=O)CN(c2cc(-c3cnc4ccc(C(F)F)nn34)ncn2)CC1(F)F (stereo not shown) [II-381, N-((1-(6-(6-(Difluoromethyl)imidazo[1,2-b]pyridazin-3-yl)pyrimidin-4-yl)-5,5-difluoro-4-methylpiperidin-3-yl)methyl)methanesulfonamide]	> 8.00	> 6.30	–	–	–
CN(CC1CCCN(c2cc(-c3cnc4ccc(C(F)F)nn34)ncn2)C1)S(C)(=O)=O (stereo not shown) [II-310, N-((1-(6-(6-(Difluoromethyl)imidazo[1,2-b]pyridazin-3-yl)pyrimidin-4-yl)piperidin-3-yl)methyl)-N-methylmethanesulfonamide]	6.00 to 8.00	5.30 to 6.30	–	–	–
CC1(F)CCN(c2cc(-c3cnc4ccc(C(F)F)nn34)ncn2)CC1CNS(C)(=O)=O (racemic) [II-350, N-((1-(6-(6-(Difluoromethyl)imidazo[1,2-b]pyridazin-3-yl)pyrimidin-4-yl)-4-fluoro-4-methylpiperidin-3-yl)methyl)methanesulfonamide]	> 8.00	> 6.30	–	–	–
CCc1ccc2ncc(-c3cc(N4CCO[C@H](CNS(C)(=O)=O)C4)ncn3)n2n1 [II-196, (S)—N-((4-(6-(6-Ethylimidazo[1,2-b]pyridazin-3-yl)pyrimidin-4-yl)morpholin-2-yl)methyl)methanesulfonamide]	6.00 to 8.00	< 5.30	–	–	–
CC1C(CNS(C)(=O)=O)N(C2CC2)CCN1c1cc(-c2cnc3ccc(C(F)F)nn23)ncn1 (stereo not shown) [II-463, N-((1-Cyclopropyl-4-(6-(6-(difluoromethyl)imidazo[1,2-b]pyridazin-3-yl)pyrimidin-4-yl)-3-methylpiperazin-2-yl)methyl)methanesulfonamide]	> 8.00	> 6.30	–	–	–

More lines, main results first:

pKi (GCN2 kinase; [2])	pIC50 [1, 3]	pKi (GCN2 kinase; [4])	pIC50 [1, 5]	Compound	further results
–	–	6.00 to 7.00	< 5.30	CC1CN(c2ccnc(-c3cnc4cnc(C(F)F)cn34)n2)CC(C)O1 (stereo not shown) [IV-119, 4-(2-(6-(Difluoromethyl)imidazo[1,2-a]pyrazin-3-yl)pyrimidin-4-yl)-2,6-dimethylmorpholine]	–
–	–	6.00 to 7.00	< 5.30	C[C@H]1CN(c2ccnc(-c3cnc4cnc(C(F)F)cn34)n2)C[C@@H](CNS(C)(=O)=O)C1(F)F [IV-21, N-(((3S,5S)-1-(2-(6-(Difluoromethyl)imidazo[1,2-a]pyrazin-3-yl)pyrimidin-4-yl)-4,4-difluoro-5-methylpiperidin-3-yl)methyl)methanesulfonamide]	–
–	–	7.00 to 8.00	< 5.30	FC(F)(F)c1cn2c(-c3nccc(N4CCCC(n5ccnn5)C4)n3)cnc2cn1 (stereo not shown) [IV-493, 3-(4-(3-(1H-1,2,3-Triazol-1-yl)piperidin-1-yl)pyrimidin-2-yl)-6-(trifluoromethyl)imidazo[1,2-a]pyrazine]	–
–	–	6.00 to 7.00	< 5.30	NS(=O)(=O)N1CCCN(c2ccnc(-c3cnc4cnc(C(F)F)cn34)n2)CC1 [IV-101, 4-(2-(6-(Difluoromethyl)imidazo[1,2-a]pyrazin-3-yl)pyrimidin-4-yl)-1,4-diazepane-1-sulfonamide]	–
–	–	> 8.00	> 6.30	Clc1cn2c(-c3nccc(N4CCOC(c5cn[nH]c5)C4)n3)cnc2cn1 (stereo not shown) [IV-6, 4-(2-(6-Chloroimidazo[1,2-a]pyrazin-3-yl)pyrimidin-4-yl)-2-(1H-pyrazol-4-yl)morpholine]	–
–	–	6.00 to 7.00	< 5.30	CC(=O)N1CCN(c2cncc(-c3cnc4cnc(C(N)=O)cn34)n2)CC1 [IV-183, 3-(6-(4-Acetylpiperazin-1-yl)pyrazin-2-yl)imidazo[1,2-a]pyrazine-6-carboxamide]	–
–	–	7.00 to 8.00	5.30 to 6.30	FC(F)(F)c1cn2c(-c3nccc(N4CCCC(c5cnco5)C4)n3)cnc2cn1 (stereo not shown) [IV-678, 5-(1-(2-(6-(Trifluoromethyl)imidazo[1,2-a]pyrazin-3-yl)pyrimidin-4-yl)piperidin-3-yl)oxazole]	–
–	–	> 8.00	> 6.30	CC(C)(O)C1CC(c2cn[nH]c2)CN(c2ccnc(-c3cnc4cnc(C(F)(F)F)cn34)n2)C1 (single isomer, unassigned) [IV-684, 2-(5-(1H-Pyrazol-4-yl)-1-(2-(6-(trifluoromethyl)imidazo[1,2-a]pyrazin-3-yl)pyrimidin-4-yl)piperidin-3-yl)propan-2-ol]	–
–	–	6.00 to 7.00	< 5.30	NCc1cccc(-c2ccnc(-c3cnc4cnc(C(F)F)cn34)n2)c1 [IV-159, (3-(2-(6-(Difluoromethyl)imidazo[1,2-a]pyrazin-3-yl)pyrimidin-4-yl)phenyl)methanamine]	–
